# Tests used:
# Format in all cases: in vivo
# [1] = system: ryegrass, Italian (Italian ryegrass, Lolium multiflorum); experiment: Test A postemergence; conditions: Lolium multiflorum, post-emergence, 240 h, 125 g ai/ha, Postemergence; visual injury after approximately 10 d; 0 to 100 scale where 0 is no effect and 100 is complete control; read-out: Plant response rating, Ryegrass, Italian
# Outline: (§1)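 Visual injury, scored on a 0–100 scale relative to untreated controls, was recorded about 10 d after application. Treatments were a preemergence soil spray over planted seeds or a postemergence spray on plants at the one- to two-leaf stage, 2 to 10 cm tall, all in loam soil–sand blend in the greenhouse.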
# [2] = system: pigweed (Amaranthus retroflexus); experiment: Test A postemergence; conditions: Amaranthus retroflexus, post-emergence, 240 h, 125 g ai/ha, Postemergence; visual injury after approximately 10 d; 0 to 100 scale where 0 is no effect and 100 is complete control; read-out: Plant response rating, Pigweed
# Outline: as §1
# [3] = system: ragweed (common ragweed, Ambrosia elatior); experiment: Test A postemergence; conditions: Ambrosia artemisiifolia, post-emergence, 240 h, 125 g ai/ha, Postemergence; visual injury after approximately 10 d; 0 to 100 scale where 0 is no effect and 100 is complete control; read-out: Plant response rating, Ragweed
# Outline: as §1
# [4] = system: barnyardgrass (Echinochloa crus-galli); experiment: Test A postemergence; conditions: Echinochloa crus-galli, post-emergence, 240 h, 125 g ai/ha, Postemergence; visual injury after approximately 10 d; 0 to 100 scale where 0 is no effect and 100 is complete control; read-out: Plant response rating, Barnyardgrass
# Outline: as §1
# [5] = system: Kochia (Kochia scoparia); experiment: Test A postemergence; conditions: Bassia scoparia, post-emergence, 240 h, 125 g ai/ha, Postemergence; visual injury after approximately 10 d; 0 to 100 scale where 0 is no effect and 100 is complete control; read-out: Plant response rating, Kochia
# Outline: as §1
# [6] = system: giant foxtail (Setaria faberii); experiment: Test A postemergence; conditions: Setaria faberi, post-emergence, 240 h, 125 g ai/ha, Postemergence; visual injury after approximately 10 d; 0 to 100 scale where 0 is no effect and 100 is complete control; read-out: Plant response rating, Foxtail, Giant
# Outline: as §1
# [7] = system: corn (Zea mays); experiment: Test A postemergence; conditions: Zea mays, post-emergence, 240 h, 125 g ai/ha, Postemergence; visual injury after approximately 10 d; 0 to 100 scale where 0 is no effect and 100 is complete control
# Outline: as §1
# [8] = system: Galium (catchweed bedstraw, Galium aparine); experiment: Test A postemergence; conditions: Galium, post-emergence, 240 h, 125 g ai/ha, Postemergence; visual injury after approximately 10 d; 0 to 100 scale where 0 is no effect and 100 is complete control; read-out: Plant response rating, Galium
# Outline: as §1
# [9] = system: blackgrass (Alopecurus myosuroides); experiment: Test A postemergence; conditions: Alopecurus myosuroides, post-emergence, 240 h, 125 g ai/ha, Postemergence; visual injury after approximately 10 d; 0 to 100 scale where 0 is no effect and 100 is complete control; read-out: Plant response rating, Blackgrass
# Outline: as §1
# [10] = system: wheat (Triticum aestivum); experiment: Test A postemergence; conditions: Triticum aestivum, post-emergence, 240 h, 125 g ai/ha, Postemergence; visual injury after approximately 10 d; 0 to 100 scale where 0 is no effect and 100 is complete control; read-out: Plant response rating, Wheat
# Outline: as §1
# [11] = system: ryegrass, Italian (Italian ryegrass, Lolium multiflorum); experiment: Test A preemergence; conditions: Lolium multiflorum, pre-emergence, 240 h, 500 g ai/ha, preemergence; visual injury rating about 10 d after treatment, 0 to 100 scale (0 no effect, 100 complete control); read-out: Ryegrass, Italian plant response rating
# Outline: as §1
# [12] = system: pigweed (Amaranthus retroflexus); experiment: Test A preemergence; conditions: Amaranthus retroflexus, pre-emergence, 240 h, preemergence, read-out: Pigweed plant response rating
# [13] = system: ragweed (common ragweed, Ambrosia elatior); experiment: Test A preemergence; conditions: Ambrosia artemisiifolia, pre-emergence, 240 h, 500 g ai/ha, preemergence; visual injury rating about 10 d after treatment, 0 to 100 scale (0 no effect, 100 complete control); read-out: Ragweed plant response rating
# Outline: as §1
# [14] = system: barnyardgrass (Echinochloa crus-galli); experiment: Test A preemergence; conditions: Echinochloa crus-galli, pre-emergence, 240 h, preemergence, read-out: Barnyardgrass plant response rating
# Outline: as §1
# [15] = system: Kochia (Kochia scoparia); experiment: Test A preemergence; conditions: Bassia scoparia, pre-emergence, 240 h, preemergence, read-out: Kochia plant response rating
# Outline: as §1
# [16] = system: giant foxtail (Setaria faberii); experiment: Test A preemergence; conditions: Setaria faberi, pre-emergence, 240 h, preemergence, read-out: Foxtail, Giant plant response rating
# Outline: as §1
# [17] = 125 g ai/ha, 0 to 100 scale where 0 is no effect and 100 is complete control
# [18] = 500 g ai/ha, visual injury rating about 10 d after treatment, 0 to 100 scale (0 no effect, 100 complete control)
structure (smiles),measurement,setting,value
CN1C[C@H](c2ccc(C(F)(F)F)cc2)[C@@H](C(=O)Nc2cccc(F)c2Cl)C1=O [Compound 938],pest or weed control at 125 g/ha,[1],20%
same,pest or weed control at 125 g/ha,[2],50%
same,pest or weed control at 125 g/ha,[3],0%
same,pest or weed control at 125 g/ha,[4],80%
same,pest or weed control at 125 g/ha,[5],40%
same,pest or weed control at 125 g/ha,[6],80%
same,"Corn plant response rating (crop injury, 0 = no effect, 100 = complete kill) at 125 g/ha",[7],60%
same,pest or weed control at 125 g/ha,[8],50%
same,pest or weed control at 125 g/ha,[9],40%
same,plant injury at 125 g/ha,[10],40%
same,pest or weed control at 500 g/ha,[11],30%
same,pest or weed control at 125 g/ha,[12]; [17],80%
same,pest or weed control at 500 g/ha,[12]; [18],90%
same,pest or weed control at 500 g/ha,[13],20%
same,pest or weed control at 125 g/ha,[14]; [17],90%
same,pest or weed control at 500 g/ha,[14]; [18],90%
same,pest or weed control at 125 g/ha,[15]; [17],70%
same,pest or weed control at 500 g/ha,[15]; [18],80%
same,pest or weed control at 125 g/ha,[16]; [17],90%
same,pest or weed control at 500 g/ha,[16]; [18],90%

# Reference: US12077503B2, “Substituted cyclic amides and their use as herbicides” (FMC CORPORATION, priority 2015, dated 2024)
